Experimental findings from patent publication US11136311B2, “Heteroaromatic derivatives as NIK inhibitors” (Janssen Pharmaceutica NV, priority 2016, dated 2021) are described below.

The test system of experiment [1] is KMS12-BM cells. The experiment can be described thus: Antiproliferative activity on KMS12-BM (NIK WT) multiple myeloma cells (CellTiter-Glo). Type of experiment: cell-based, human. The settings on record: KMS12-BM (NIK WT) cells, 96 hr, averaged values, read-out: KMS-12 Proliferation inhibition (IC50 (nM)). The essentials: (§1)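 Viability was read by CellTiter-Glo after 96 hr compound exposure (9-point, 1:3 serial dilutions; 0.3% DMSO final). JJN-3 and KMS12-BM cells were seeded at 15000 and 20000 per well respectively in RPMI 1640/10% FCS; blank-subtracted signals were given as percent of drug-free controls.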

Experiment [2] concerns the target recombinant human NF-kappaB-inducing kinase (NIK/MAP3K14) (Homo sapiens (Human), UniProt Q99558). Kind of experiment: Inhibition of auto-phosphorylation of recombinant human NIK/MAP3K14 activity (AlphaScreen). Type of experiment: biochemical. The note with it: averaged values over all measurements on all batches. The procedure, abridged: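 AlphaScreen read-out, using anti-phospho-IKK Ser176/180 antibody, tracked NIK autophosphorylation after 1 h at 25° C. Reactions held 0.2 nM GST-NIK, 25 microM ATP and compound in 1% DMSO, Tris pH 7.5 buffer. IC50 fitted sigmoidally to blank-subtracted inhibition data.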

Experiment [3] deals with P-IKKα levels in L363 cells. The experiment can be described thus: Effect of compounds on P-IKKα levels in L363 (NIK translocated multiple myeloma) cells. Type of experiment: cell-based, human. The settings on record: averaged values, read-out: Inhibition of pIKKα_L-363 (IC50 (nM)). How it is done: Effect of compounds on P-IKKα levels in L363 (NIK translocated multiple myeloma) cells
All compounds tested were dissolved in DMSO and further dilutions were made in culture medium. Final DMSO concentration was 1% (v/v) in cell assays. The human L363 cells (ATCC) were cultured in RPMI 1640 medium supplemented with GlutaMax and 10% fetal calf serum (PAA). Cells were routinely maintained at densities of 0.2×10^6 cells per ml-1×10^6 cells per ml at 37° C. in a humidified 5% CO2 atmosphere. Cells were passaged twice a week splitting back to obtain the low density. Cells were seeded in 96 well plates (Nunc 167008) at 2×10^6 per ml media in a volume of 75 μl per well plus 25 μl 1 μg/ml recombinant human B-cell activating factor (BAFF/BLyS/TNFSF13B). Seeded cells were incubated at 37° C. in a humidified 5% CO2 atmosphere for 24 hr. Drugs and/or solvents were added (20 μl) to a final volume of 120 μl. Following 2 hr treatment plates were removed from the incubator and cell lysis was achieved by the addition of 30 μl 5× lysis buffer followed by shaking on a plate shaker at 4° C. for 10 min. At the end of this incubation lysed cells were centrifuged at 800×g for 20 min at 4° C. and the lysate was assessed for P-IKKα levels by sandwich immuno-assay carried out in anti-rabbit antibody coated Mesoscale plates. Within an experiment, the results for each treatment were the mean of 2 replicate wells. For initial screening purposes, compounds were tested using an 8 point dilution curve (serial 1:3 dilutions). For each experiment, controls (containing MG132 and BAFF but no test drug) and a blank incubation (containing MG132 and BAFF and 10 μM ADS125117, a test concentration known to give full inhibition) were run in parallel. The blank incubation value was subtracted from all control and sample values. To determine the IC50 a sigmoidal curve was fitted to the plot of % inhibition of control P-IKKα levels versus Log10 compound concentration.

Experiment [4] concerns JJN-3 cells. Kind of experiment: Antiproliferative activity on JJN-3 (NIK translocated) multiple myeloma cells (CellTiter-Glo). The format is cell-based, human. The note with it: JJN-3 (NIK translocated) cells, 96 hr, averaged values, read-out: JJN-3 Proliferation inhibition (IC50 (nM)). The procedure, abridged: as §1
Where [5] appears, read: Homo sapiens, L-363, L363 cells.

SMILES strings stand for the structures. Read-outs that look alike come from different tables or passages of the source.

recombinant human NF-kappaB-inducing kinase (NIK/MAP3K14), sequence (Q99558 whole entry): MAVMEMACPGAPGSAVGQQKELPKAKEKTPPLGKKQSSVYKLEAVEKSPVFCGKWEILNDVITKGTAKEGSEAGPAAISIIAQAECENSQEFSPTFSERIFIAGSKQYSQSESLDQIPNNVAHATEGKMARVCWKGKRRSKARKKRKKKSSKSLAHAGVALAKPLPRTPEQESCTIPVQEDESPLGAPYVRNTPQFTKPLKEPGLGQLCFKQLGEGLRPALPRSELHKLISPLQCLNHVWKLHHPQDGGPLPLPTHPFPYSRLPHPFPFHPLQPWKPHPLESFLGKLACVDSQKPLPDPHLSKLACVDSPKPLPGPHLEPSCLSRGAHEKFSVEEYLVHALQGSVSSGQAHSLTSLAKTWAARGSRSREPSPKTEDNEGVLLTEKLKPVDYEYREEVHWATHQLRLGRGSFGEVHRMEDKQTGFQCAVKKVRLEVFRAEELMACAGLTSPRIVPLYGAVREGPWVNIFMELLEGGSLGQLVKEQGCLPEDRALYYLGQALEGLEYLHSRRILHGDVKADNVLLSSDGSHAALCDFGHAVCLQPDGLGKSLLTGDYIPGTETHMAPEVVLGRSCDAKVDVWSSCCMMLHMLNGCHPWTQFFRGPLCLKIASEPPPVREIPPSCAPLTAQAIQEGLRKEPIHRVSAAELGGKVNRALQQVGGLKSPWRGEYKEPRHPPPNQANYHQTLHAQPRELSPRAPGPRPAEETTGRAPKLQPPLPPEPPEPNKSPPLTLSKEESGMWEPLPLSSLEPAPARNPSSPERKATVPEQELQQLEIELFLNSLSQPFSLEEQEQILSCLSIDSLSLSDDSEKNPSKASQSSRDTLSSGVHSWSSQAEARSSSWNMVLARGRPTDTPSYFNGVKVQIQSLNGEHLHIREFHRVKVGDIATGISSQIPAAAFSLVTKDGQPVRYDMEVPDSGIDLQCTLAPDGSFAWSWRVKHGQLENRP

As to `Cc1cc(Nc2nccc(-c3cc(C#N)c4c(c3)[C@@](C)(CO)CN4)n2)n(CC2CCOC2)n1` (single isomer, unassigned) [Compound 81], the IC50 was determined as 851 nM in experiment [1]; 4.3 nM in experiment [2]; 11 nM in experiment [3] (setting [5]); 195 nM in experiment [4] (Homo sapiens, JJN-3, 96 h).
For `Cc1cc(Nc2nccc(-c3cc(C#N)c4c(c3)[C@@](C)(CO)CN4)n2)n(CC2CCOC2)n1` (single isomer, unassigned) [Compound 82], the IC50 in experiment [1] was 380 nM; in experiment [2], around 5 nM; in experiment [3] (L363 cells) it was 13 nM; in experiment [4], 182 nM.
As to `Cc1cc(Nc2nccc(-c3cc(C#N)c4c(c3)[C@@](C)(CO)CN4)n2)n(CC2COCCO2)n1` (single isomer, unassigned) [Compound 84], the IC50 in experiment [1] is above 10000 nM; in experiment [2], 11 nM; in experiment [3] (L363 cells), 11 nM; in experiment [4] (Homo sapiens, JJN-3, 96 h) it was 437 nM.
`Cc1cc(Nc2nccc(-c3cc(C#N)c4c(c3)[C@@](C)(CO)CN4)n2)n(CC2COCCO2)n1` (single isomer, unassigned) [Compound 85]: the IC50 in experiment [1] was around 4900 nM; in experiment [2] it was 9.8 nM; in experiment [3] (L363 cells) it was 31 nM; in experiment [4], 380 nM.
As to `Cc1cc(Nc2nccc(-c3cc(C#N)c4c(c3)[C@@](C)(CO)CN4)n2)n(CC2CCCN(C)C2)n1` (single isomer, unassigned) [Compound 140], the IC50 in experiment [1] (Homo sapiens, KMS-12-BM, 96 h) turned out to be 6460 nM; in experiment [2], 8.3 nM; in experiment [3] (L363 cells) it was 145 nM; in experiment [4], 174 nM.
Turning to `Cc1cc(Nc2nccc(-c3cc(C#N)c4c(c3)[C@@](C)(CO)CN4)n2)n(CC2CCCN(C)C2)n1` (single isomer, unassigned) [Compound 141], the IC50 in experiment [1] is above 10000 nM; in experiment [2], 42 nM; in experiment [3] (L363 cells), 813 nM; in experiment [4], 79 nM.
Regarding `CC(C)n1nc(Nc2nccc(-c3cc(C#N)c4c(c3)C(C)(CO)CN4)n2)cc1C(=O)NC1CCOCC1` (stereo not drawn) [Compound 35], the IC50 is above 10000 nM in experiment [1] (Homo sapiens, KMS-12-BM, 96 h); 7.9 nM in experiment [2]; 4 nM in experiment [3] (setting [5]); 209 nM in experiment [4] (Homo sapiens, JJN-3, 96 h).
The matching figures for `COCCn1nc(C)cc1Nc1nccc(-c2cc(C#N)c3c(c2)[C@@](C)(CO)CN3)n1` [Compound 42]: 5980 nM, 4.2 nM, 68 nM and 398 nM.
The matching figures for `Cc1cc(Nc2nccc(-c3cc(C#N)c4c(c3)[C@@](C)(CO)CN4)n2)nn1CC1CCOCC1` [Compound 60]: around 501 nM, 2 nM, 5 nM and 72 nM.
Consider `Cc1cc(Nc2nccc(-c3cc(C#N)c4c(c3)[C@@](C)(CO)CN4)n2)nn1CC1CCCCO1` (stereo partly drawn) [Compound 70], for which the IC50 in experiment [1] came to 1860 nM; in experiment [2], 3.8 nM; in experiment [3] (setting [5]), 6 nM; in experiment [4], 209 nM.
On to `Cc1cc(Nc2nccc(-c3cc(C#N)c4c(c3)[C@@](C)(CO)CN4)n2)nn1CC1CCCCO1` (stereo partly drawn) [Compound 71], for which the IC50 came out at 813 nM in experiment [1], 2.8 nM in experiment [2], 4 nM in experiment [3] (L363 cells) and 102 nM in experiment [4].
Take `Cc1c(Nc2nccc(-c3cc(C#N)c4c(c3)[C@@](C)(CO)CN4)n2)cnn1C1CCOCC1` [Compound 72]: the IC50 in experiment [1] (Homo sapiens, KMS-12-BM, 96 h) was 724 nM; in experiment [2] it was 2.9 nM; in experiment [3] (setting [5]) it was 3 nM; in experiment [4] (Homo sapiens, JJN-3, 96 h) it was 102 nM.
Take `C=CCn1nc(C)cc1Nc1nccc(-c2cc(C#N)c3c(c2)[C@@](C)(CO)CN3)n1` [Compound 73]: the IC50 stood at 1320 nM in experiment [1] (Homo sapiens, KMS-12-BM, 96 h); 1.9 nM in experiment [2]; 2 nM in experiment [3] (setting [5]); 195 nM in experiment [4] (Homo sapiens, JJN-3, 96 h).
The matching figures for `Cc1c(Nc2nccc(-c3cc(C#N)c4c(c3)[C@@](C)(CO)CN4)n2)cnn1CC1CCOCC1` [Compound 76]: 741 nM, 1.2 nM, 2 nM and 141 nM.
For `Cc1cc(Nc2nccc(-c3cc(C#N)c4c(c3)[C@@](C)(CO)CN4)n2)n(CC2CCN(C)CC2)n1` [Compound 83], in that order: 148 nM, 10 nM, 514 nM and 111 nM.
The matching figures for `CN(C)C(=O)c1cc(Nc2nccc(-c3cc(C#N)c4c(c3)C(C)(CO)CN4)n2)n(C)n1` (stereo not drawn) [Compound 86]: around 3720 nM, 2.6 nM, 15 nM and 871 nM.
As to `Cc1cc(Nc2nccc(-c3cc(C#N)c4c(c3)[C@@](C)(CO)CN4)n2)n(CC(=O)N2CC(F)(F)C2)n1` [Compound 87], the IC50 in experiment [1] (Homo sapiens, KMS-12-BM, 96 h) was above 10000 nM; in experiment [2] it was around 6.5 nM; in experiment [3] (setting [5]), 34 nM; in experiment [4] (Homo sapiens, JJN-3, 96 h), 3240 nM.
The matching figures for `Cc1cc(Nc2nccc(-c3cc(C#N)c4c(c3)[C@@](C)(CO)CN4)n2)n(CC(=O)N2CCCC2)n1` [Compound 88]: above 10000 nM, 6.8 nM, 9 nM and 2140 nM.
For `Cc1cc(Nc2nccc(-c3cc(C#N)c4c(c3)[C@@](C)(CO)CN4)n2)n(CC(=O)N(C)C2CC2)n1` [Compound 89], in that order: above 10000 nM, 3.7 nM, around 85 nM and 427 nM.
For `CC(C)n1nc(C2CCOCC2)cc1Nc1cc(-c2cc(C#N)c3c(c2)[C@@](C)(CO)CN3)ncn1` [Compound 91], in that order: above 10000 nM, 5.5 nM, 13 nM and 324 nM.
`Cc1cc(Nc2nccc(-c3cc(C#N)c4c(c3)[C@@](C)(CO)CN4)n2)n(CCCO)n1` [Compound 92]: the IC50 was 1510 nM in experiment [1] (Homo sapiens, KMS-12-BM, 96 h); 3.5 nM in experiment [2]; 7 nM in experiment [3] (setting [5]); around 224 nM in experiment [4] (Homo sapiens, JJN-3, 96 h).
For `CC(C)CCn1nc(C#N)cc1Nc1nccc(-c2cc(C#N)c3c(c2)[C@@](C)(CO)CN3)n1` [Compound 93], in that order: 457 nM, 11 nM, 37 nM and 182 nM.
The matching figures for `Cc1cc(Nc2nccc(-c3cc(C#N)c4c(c3)[C@@](C)(CO)CN4)n2)nn1CCC1CC1` [Compound 95]: 871 nM, 1.6 nM, 4 nM and 100 nM.
In the case of `Cc1cc(Nc2nccc(-c3cc(C#N)c4c(c3)[C@@](C)(CO)CN4)n2)n(CCC2CC2)n1` [Compound 96], the IC50 was 3800 nM in experiment [1] (Homo sapiens, KMS-12-BM, 96 h); 1.6 nM in experiment [2]; 12 nM in experiment [3] (setting [5]); 76 nM in experiment [4] (Homo sapiens, JJN-3, 96 h).
The matching figures for `CC(C)Cc1nn(C)cc1Nc1nccc(-c2cc(C#N)c3c(c2)[C@@](C)(CO)CN3)n1` [Compound 97]: above 10000 nM, 2 nM, 2 nM and 309 nM.
The matching figures for `CC(C)Cc1c(Nc2nccc(-c3cc(C#N)c4c(c3)[C@@](C)(CO)CN4)n2)cnn1C` [Compound 98]: above 10000 nM, 2 nM, 5 nM and 1020 nM.
The matching figures for `CC(C)CCc1c(Nc2nccc(-c3cc(C#N)c4c(c3)[C@@](C)(CO)CN4)n2)cnn1C` [Compound 99]: 9770 nM, 2.9 nM, 3 nM and 288 nM.
